Experimental data: patent US20100130604A1, “USE OF ROSMARINIC ACID IN MANUFACTURE OF MEDICAMENTS FOR TREATING OR PREVENTING HEPATIC AND RENAL DISEASES” (SHANGDONG LUYE NATURAL DRUG RESEARCH AND DEVELOPMENT CO., …, priority 2006, published 2010)
Like-named read-outs stand apart in the source and are kept apart here.

Assays:
[1] = tested on: renal interstitial fibrosis in rats; test: Renal interstitial fibrosis in rats with unilateral urethral obstruction; type: in vivo, Sprague Dawley rats; conditions: for HYP: left kidney; for HYP / FN: day 10; for FN: serum
Method: 130 rats were randomly divided into 13 groups, namely, a sham operation group, a model group, benazapril p.o. Group at 10 mg/kg, RA i.v. groups at 2.5 mg/kg, 5 mg/kg, 25 mg/kg, 75 mg/kg, and 150 mg/kg of RA, and RA p.o. groups at 2.5 mg/kg, 5 mg/kg, 25 mg/kg, 150 mg/kg, and 300 mg/kg of RA. The animals were acclimated for a week before they were all anaesthetised with an i.p. dose of 10% chloral hydrate at 3.0mL/kg and placed on the operating table in right lateral position. The rats were shaved and the operating area was disinfected using iodine tincture and 75% ethanol. The left urethra was exposed and isolated after a left lateral incision was made on the abdominal area and skin, muscles and all other layers of the abdominal wall were incised sequentially. In the sham group, the left urethra was only isolated without being ligated or cut off. In all other animals, the left urethra was ligated with No. 4 suture and obstructed followed by closure of the abdominal wall layer by layer. The animals were anaesthetised again with 10% chloral hydrate 10 days later, blood was collected and serum was separated to determine FN levels. The left kidney was removed after thorough rinsing and then fixed in 4% paraformaldehyde buffer. HYP level was determined according to instructions provided with the kit.

[2] = tested on: HSC-T6 cells; test: Inhibitory effect of RA on HSC-T6 cell growth (MTT); type: cell-based; conditions: for inhibition at 0.1 µg/mL / inhibition at 1 µg/mL / inhibition at 10 µg/mL / inhibition at 50 µg/mL / inhibition at 100 µg/mL: HSC-T6, read-out: Inhibition rate (%); for inhibition at 0.1 µg/mL: 0.1 mg/L; for inhibition at 1 µg/mL: 1 mg/L; for inhibition at 10 µg/mL: 10 mg/L; for inhibition at 50 µg/mL: 50 mg/L; for inhibition at 100 µg/mL: 100 mg/L
Text: Cells and experimental groups: HSC cell line was HSC-T6 (Shanghai Biosis Biotechnology Co. Ltd.), with the phenotype of active HSC. The cells were divided into groups for 0, 2.5, 5, 10, 20, and 40 μmol·L^−1 of RA. MTT method (Ye T and Liu X C, Effect of Pentoxifilline on Proliferation of Mesangial Cell Cultured in glucose-rich Medium and on CTGF Expression, Chinese Pharmacological Bulletin, 2004, 20(8): 883-885) was used to determine the effective RA concentration. Effects of RA on HSC-T6 proliferation and CTGF expression were examined.
A 1000 mg/L stock solution of RA in DMEM medium was prepared, and filtered through 0.22 μm microfilter to remove bacteria. The stock was then aliquoted in appropriate containers and stored at −20° C. in dark. It is good for use within 2 weeks. DMEM supplemented with 2% fetal bovine serum (FBS) was used to dilute the stock to desired concentrations before use.
HSC-T6 cells were cultured in DMEM supplemented with 100 U·mL^−1 penicillin, 100 U·mL^−1 streptomycin, and 10% FBS at 37° C., 5% CO2, and saturated humidity. Medium was changed every other day. The culture was digested with 0.002% EDTA and 0.25% trypsin at 80-90% confluence. And the cells were passaged at 1:4.
HSC-T6 cells at logarithmic phase after thawed were digested with trypsin and seeded to 96-well plate in DMEM supplemented with 5% FBS at the density of 1×10^4. After 24 hours culture, different concentrations of RA were added according to table 1. Each concentration of RA was added to 6 wells. Blank wells were designed to serve as control. […] The supernatant was discarded after 4 hours of incubation, and […] of dimethyl sufoxide (DMSO) was added to each well to obtain cell lysate, which was then shaken well before detected for OD value on ELISA reader (492 nm). Cell growth inhibition rates were calculated.

SMILES: O=C(/C=C/c1ccc(O)c(O)c1)O[C@H](Cc1ccc(O)c(O)c1)C(=O)O [RA, R(+)2-{[3-(3,4-dihydroxylphenyl-(oxo-2-propenyl)oxy]3,4-dihydroxylphenylpropionic acid]}]
- kidney lesions, light microscopic examination ([1]; RA treated animals vs model group): improvement of various degrees in lesions
- FN and HYP levels vs model group ([1]; i.v. 2.5, 5, 25, 75, 150 mg/kg, p.o. 5, 25, 150, 300 mg/kg, p<0.05 or 0.01): can all significantly reduce FN and HYP levels
- HYP ([1]; i.v. 2.5 mg/kg): 612 ± 102 µg/g
- HYP ([1]; i.v. 5 mg/kg): 605 ± 118 µg/g
- HYP ([1]; i.v. 25 mg/kg): 573 ± 98 µg/g
- HYP ([1]; i.v. 75 mg/kg): 533 ± 94 µg/g
- HYP ([1]; i.v. 150 mg/kg): 526 ± 121 µg/g
- HYP ([1]; p.o. 2.5 mg/kg): 705 ± 162 µg/g
- HYP ([1]; p.o. 5 mg/kg): 612 ± 118 µg/g
- HYP ([1]; p.o. 25 mg/kg): 573 ± 98 µg/g
- HYP ([1]; p.o. 150 mg/kg): 563 ± 94 µg/g
- HYP ([1]; p.o. 300 mg/kg): 556 ± 121 µg/g
- FN ([1]; i.v. 2.5 mg/kg): 22.7 ± 6.0 mg/L
- FN ([1]; i.v. 5 mg/kg): 19.9 ± 6.3 mg/L
- FN ([1]; i.v. 25 mg/kg): 17.7 ± 6.2 mg/L
- FN ([1]; i.v. 75 mg/kg): 16.5 ± 4.3 mg/L
- FN ([1]; i.v. 150 mg/kg): 16.4 ± 4.4 mg/L
- FN ([1]; p.o. 2.5 mg/kg): 22.4 ± 6.5 mg/L
- FN ([1]; p.o. 5 mg/kg): 19.8 ± 6.2 mg/L
- FN ([1]; p.o. 25 mg/kg): 17.5 ± 6.3 mg/L
- FN ([1]; p.o. 150 mg/kg): 17.2 ± 4.3 mg/L
- FN ([1]; p.o. 300 mg/kg): 17.2 ± 4.4 mg/L
- inhibition at 0.1 µg/mL ([2]; 12 h): 9.8 ± 2.3%
- inhibition at 0.1 µg/mL ([2]; 24 h): 12.1 ± 2.2%
- inhibition at 0.1 µg/mL ([2]; 48 h): 14.4 ± 2.3%
- inhibition at 1 µg/mL ([2]; 12 h): 20.7 ± 2%
- inhibition at 1 µg/mL ([2]; 24 h): 23 ± 2%
- inhibition at 1 µg/mL ([2]; 48 h): 25.3 ± 2.1%
- inhibition at 10 µg/mL ([2]; 12 h): 37.2 ± 2.6%
- inhibition at 10 µg/mL ([2]; 24 h): 38.6 ± 1.9%
- inhibition at 10 µg/mL ([2]; 48 h): 38.9 ± 3.2%
- inhibition at 50 µg/mL ([2]; 12 h): 52.3 ± 4.7%
- inhibition at 50 µg/mL ([2]; 24 h): 54.6 ± 4.6%
- inhibition at 50 µg/mL ([2]; 48 h): 55.2 ± 3.5%
- inhibition at 100 µg/mL ([2]; 12 h): 57.2 ± 2.3%
- inhibition at 100 µg/mL ([2]; 24 h): 59.6 ± 2.1%
- inhibition at 100 µg/mL ([2]; 48 h): 61.8 ± 2.2%
- HSC-T6 proliferation compared to the control group ([2]; different concentrations of RA): significantly inhibited HSC-T6 proliferation
